A value given as a limit tells only on which side of the number the result lay.

For the first assay, the target named is T1, EGFR L858R-T790M (Homo sapiens, UniProt P00533, L858R/T790M).
T1 construct: NCI-H1975 (harboring EGFR heterozygous L858R-T790M mutations); host or cells: NCI-H1975
T1 sequence (P00533 25-1210 T790M/L858R): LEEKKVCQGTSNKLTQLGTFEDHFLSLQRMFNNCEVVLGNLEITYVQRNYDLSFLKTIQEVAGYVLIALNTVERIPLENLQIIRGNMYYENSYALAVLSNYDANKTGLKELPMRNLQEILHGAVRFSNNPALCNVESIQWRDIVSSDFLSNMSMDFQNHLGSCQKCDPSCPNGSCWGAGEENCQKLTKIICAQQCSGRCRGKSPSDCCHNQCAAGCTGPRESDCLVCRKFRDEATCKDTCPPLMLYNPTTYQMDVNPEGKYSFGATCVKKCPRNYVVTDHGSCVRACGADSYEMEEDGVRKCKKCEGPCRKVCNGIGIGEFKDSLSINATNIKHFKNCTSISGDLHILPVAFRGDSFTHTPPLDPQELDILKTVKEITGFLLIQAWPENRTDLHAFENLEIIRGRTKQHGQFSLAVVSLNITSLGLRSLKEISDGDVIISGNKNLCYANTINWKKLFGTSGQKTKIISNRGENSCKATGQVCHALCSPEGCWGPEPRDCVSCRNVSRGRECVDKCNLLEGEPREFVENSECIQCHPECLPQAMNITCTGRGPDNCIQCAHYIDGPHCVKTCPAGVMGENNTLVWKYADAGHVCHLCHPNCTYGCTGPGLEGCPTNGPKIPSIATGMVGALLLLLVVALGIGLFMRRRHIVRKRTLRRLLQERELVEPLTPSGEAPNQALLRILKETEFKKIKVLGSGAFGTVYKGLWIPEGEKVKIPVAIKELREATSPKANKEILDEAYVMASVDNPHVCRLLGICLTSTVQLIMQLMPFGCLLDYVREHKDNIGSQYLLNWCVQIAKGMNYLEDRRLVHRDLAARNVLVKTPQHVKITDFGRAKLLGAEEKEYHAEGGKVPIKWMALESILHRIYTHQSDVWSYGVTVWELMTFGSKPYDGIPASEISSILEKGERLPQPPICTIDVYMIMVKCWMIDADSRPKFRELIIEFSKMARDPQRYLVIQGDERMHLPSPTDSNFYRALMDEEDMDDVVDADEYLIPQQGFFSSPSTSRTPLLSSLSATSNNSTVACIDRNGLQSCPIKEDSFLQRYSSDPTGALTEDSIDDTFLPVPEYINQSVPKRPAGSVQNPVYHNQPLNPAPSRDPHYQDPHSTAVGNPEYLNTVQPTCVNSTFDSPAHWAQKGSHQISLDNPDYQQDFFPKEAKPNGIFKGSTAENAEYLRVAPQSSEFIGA
The experiment in a line: EGFR degradation, Total EGFR (L858R-specific) HTRF, NCI-H1975. It counts as cell-based. The note with it: Table 9A; NCI-H1975 cells, 6 hours, Total EGFR HTRF; read-out: H1975 EGFR DC50. From the text: NCI-H1975 (harboring EGFR heterozygous L858R-T790M mutations) and NCI-H3255 (harboring EGFR heterozygous L858R mutation) were purchased from ATCC and NCI, respectively. NCI-H1975+CS (harboring EGFR heterozygous L858R-T790M-C797S mutations) was generated using CRISPR technology to introduce the additional C797S mutation by Horizon Discovery. A431 (harboring EGFR wildtype) was purchased from ATCC. RPMI 1640 no-phenol red medium and fetal bovine serum (FBS) were purchased from Gibco (Grand Island, NY, USA). Cell culture flasks and 384-well microplates were acquired from VWR (Radnor, PA, USA). Phosphorylated (pY1068) EGFR and Total EGFR (using L858R-specific detection antibody and pan-EGFR antibody for EGFR mutant cell lines and EGFR wild-type cell lines, respectively) HTRF assay kits were purchased from Cisbio (Bedford, MA, USA).
Degradation of EGFR protein containing L858R mutation or wild-type was determined based on quantification of FRET signal using a Total EGFR (L858R-specific or pan-EGFR detecting) HTRF assay kit. Phospho-EGFR (pEGFR) inhibition was determined based on quantification of FRET signal using a pY1068 EGFR HTRF assay kit. In separate assay plates, test compounds were added to the 384-well plate from a top concentration of 10 μM with 11 points, half log titration in duplicates. For each assay, 12.5 uL of cells suspended in assay media (RPMI 1640 no-phenol red medium+10% FBS) at cell densities indicated for each cell line in Table 8 below were dispensed using a multi-channel pipette to 384-well low volume white HTRF microplates containing a duplicate concentration range of test compounds and DMSO controls. The plates were kept at 37° C. with 5% CO2 for 6 hours and then incubated with either phospho EGFR or Total EGFR HTRF detection antibodies according to the cell line and EGFR mutant being assayed. Cells treated in the absence of the test compound were the negative control. Positive control was set by wells containing all reagents but no cells. FRET signal was acquired on EnVision™ Multilabel Reader (PerkinElmer, Santa Clara, CA, USA). Compound concentration that achieves 50% degradation and inhibition was reported as DC50 and IC50, respectively.
Consider `O=C1NC(=O)C2(Nc3ccc(C4CCN(CC(=O)N5CCC(Oc6ccc(-c7cc(F)c8c(c7)C(=O)N(C(C(=O)Nc7nccs7)c7ncn9c7CCC9)C8)cc6)CC5)CC4)cc3)CC1C2` (stereo not shown) [Compound 38, 2-(6,7-dihydro-5H-pyrrolo[1,2-c]imidazol-1-yl)-2-(6-(4-((1-(2-(4-(4-((2,4-dioxo-3-azabicyclo[3.1.1]heptan-1-yl)amino)phenyl)piperidin-1-yl)acetyl)piperidin-4-yl)oxy)phenyl)-4-fluoro-1-oxoisoindolin-2-yl)-N-(thiazol-2-yl)acetamide], for which the DC50 was 50 to 150 nM.

Staying with this assay, now noted: Table 9B; NCI-H1975 cells, 6 hours, Total EGFR HTRF; read-out: H1975 EGFR DC50.
Take `O=C1CCN(c2ccc(N3CCC(O)(CC(=O)N4CC5(C4)CN(c4ccc(-c6cc(F)c7c(c6)C(=O)N(C(C(=O)Nc6nccs6)c6ncn8c6CCC8)C7)cc4)C5)CC3)c(F)c2)C(=O)N1` (stereo not shown) [Compound 156, 2-(6,7-dihydro-5H-pyrrolo[1,2-c]imidazol-1-yl)-2-[6-[4-[2-[2-[1-[4-(2,4-dioxohexahydropyrimidin-1-yl)-2-fluoro-phenyl]-4-hydroxy-4-piperidyl]acetyl]-2,6-diazaspiro[3.3]heptan-6-yl]phenyl]-4-fluoro-1-oxo-isoindolin-2-yl]-N-thiazol-2-yl-acetamide]: the DC50 is 50 to 150 nM. Same read-out and setting: the value for `Cn1nc(N2CCC(=O)NC2=O)c2cc(F)c(C3CCN(CC(=O)N4CC5(C4)CN(c4ccc(-c6cc(F)c7c(c6)C(=O)N(C(C(=O)Nc6nccs6)c6ncn8c6CCC8)C7)cc4)C5)CC3(F)F)cc21` (single isomer, unassigned; isomer 2) [Compound 130, 2-(6,7-dihydro-5H-pyrrolo[1,2-c]imidazol-1-yl)-2-[6-[4-[2-[2-[4-[3-(2,4-dioxohexahydropyrimidin-1-yl)-5-fluoro-1-methyl-indazol-6-yl]-3,3-difluoro-1-piperidyl]acetyl]-2,6-diazaspiro[3.3]heptan-6-yl]phenyl]-4-fluoro-1-oxo-isoindolin-2-yl]-N-thiazol-2-yl-acetamide, isomer 2] was under 50 nM; that for `Cn1nc(N2CCC(=O)NC2=O)c2ccc(C3CCN(CC(=O)N4CC5(C4)CN(c4ccc(-c6cc(F)c7c(c6)C(=O)N(C(C(=O)Nc6ccccn6)c6ncn8c6CCC8)C7)cc4)C5)C4(CC4)C3)cc21` (stereo not shown) [Compound 153, 2-(6,7-dihydro-5H-pyrrolo[1,2-c]imidazol-1-yl)-2-[6-[4-[2-[2-[7-[3-(2,4-dioxohexahydropyrimidin-1-yl)-1-methyl-indazol-6-yl]-4-azaspiro[2.5]octan-4-yl]acetyl]-2,6-diazaspiro[3.3]heptan-6-yl]phenyl]-4-fluoro-1-oxo-isoindolin-2-yl]-N-(2-pyridyl)acetamide] was 50 to 150 nM. With `O=C1CCC(Nc2ccc(-c3ccc(CC(=O)N4CCC(Oc5ccc(-c6cc(F)c7c(c6)C(=O)N(C(C(=O)Nc6nccs6)c6ncn8c6CCC8)C7)cc5)CC4)cc3)cc2)C(=O)N1` (stereo not shown) [Compound 81, 2-(6,7-dihydro-5H-pyrrolo[1,2-c]imidazol-1-yl)-2-(6-(4-((1-(2-(4′-((2,6-dioxopiperidin-3-yl)amino)-[1,1′-biphenyl]-4-yl)acetyl)piperidin-4-yl)oxy)phenyl)-4-fluoro-1-oxoisoindolin-2-yl)-N-(thiazol-2-yl)acetamide], the 50% degradation concentration (DC50) fell in the range of 50 to 150 nM.

Regarding `O=C1CCC(Nc2ccc(N3CCC(O)(CC(=O)N4CC5(C4)CN(c4ccc(-c6cc(F)c7c(c6)C(=O)N(C(C(=O)Nc6nccs6)c6ncn8c6CCC8)C7)cc4)C5)CC3)c(Cl)c2)C(=O)N1` (stereo not shown) [Compound 117, 2-[6-[4-[2-[2-[1-[2-chloro-4-[(2,6-dioxo-3-piperidyl)amino]phenyl]-4-hydroxy-4-piperidyl]acetyl]-2,6-diazaspiro[3.3]heptan-6-yl]phenyl]-4-fluoro-1-oxo-isoindolin-2-yl]-2-(6,7-dihydro-5H-pyrrolo[1,2-c]imidazol-1-yl)-N-thiazol-2-yl-acetamide], the DC50 is under 50 nM. On the same count and under the same terms, to `O=C1CCC(Nc2cc(F)c(N3CCC(O)(CC(=O)N4CCC5(CC4)CN(c4ccc(-c6cc(F)c7c(c6)C(=O)N(C(C(=O)Nc6nccs6)c6ncn8c6CCC8)C7)cc4)C5)CC3)c(F)c2)C(=O)N1` (single isomer, unassigned; isomer 1) [Compound 137, 2-(6,7-dihydro-5H-pyrrolo[1,2-c]imidazol-1-yl)-2-[6-[4-[7-[2-[1-[4-[2,6-dioxo-3-piperidyl]amino]-2,6-difluoro-phenyl]-4-hydroxy-4-piperidyl]acetyl]-2,7-diazaspiro[3.5]nonan-2-yl]phenyl]-4-fluoro-1-oxo-isoindolin-2-yl]-N-thiazol-2-yl-acetamide, isomer 1] belongs 50 to 150 nM; to `Cn1nc(N2CCC(=O)NC2=O)c2ccc(C3CCN(CC(=O)N4C[C@H]5C[C@@H]4CN5c4ccc(-c5cc(F)c6c(c5)C(=O)N(C(C(=O)Nc5nccs5)c5ncn7c5CCC7)C6)cc4)CC3)cc21` (stereo partly drawn) [Compound 82, 2-(6,7-dihydro-5H-pyrrolo[1,2-c]imidazol-1-yl)-2-(6-(4-((1R,4R)-5-(2-(4-(3-(2,4-dioxotetrahydropyrimidin-1(2H)-yl)-1-methyl-1H-indazol-6-yl)piperidin-1-yl)acetyl)-2,5-diazabicyclo[2.2.1]heptan-2-yl)phenyl)-4-fluoro-1-oxoisoindolin-2-yl)-N-(thiazol-2-yl)acetamide], over 150 nM. The same measure, in the same setting: to `O=C1CCC(Nc2ccc(N3CCCC(O)(CC(=O)N4CC5(C4)CN(c4ccc(-c6cc(F)c7c(c6)C(=O)N(C(C(=O)Nc6nccs6)c6ncn8c6CCC8)C7)cc4)C5)CC3)c(F)c2)C(=O)N1` (single isomer, unassigned; isomer b2) [Compound 167, 2-(6,7-dihydro-5H-pyrrolo[1,2-c]imidazol-1-yl)-2-[6-[4-[2-[2-[1-[4-[[2,6-dioxo-3-piperidyl]amino]-2-fluoro-phenyl]-4-hydroxy-azepan-4-yl]acetyl]-2,6-diazaspiro[3.3]heptan-6-yl]phenyl]-4-fluoro-1-oxo-isoindolin-2-yl]-N-thiazol-2-yl-acetamide, isomer B2] belongs 50 to 150 nM; to `Cc1cc(C2CCN(C(=O)CN3CCC(c4ccc(NC5CCC(=O)NC5=O)cc4)CC3)CC2)ccc1-c1cc(F)c2c(c1)C(=O)N(C(C(=O)Nc1nccs1)c1ncn3c1CCC3)C2` (stereo not shown) [Compound 152, 2-(6,7-dihydro-5H-pyrrolo[1,2-c]imidazol-1-yl)-2-[6-[4-[1-[2-[4-[4-[(2,6-dioxo-3-piperidyl)amino]phenyl]-1-piperidyl]acetyl]-4-piperidyl]-2-methyl-phenyl]-4-fluoro-1-oxo-isoindolin-2-yl]-N-thiazol-2-yl-acetamide], 50 to 150 nM. For the molecule `O=C1CCN(c2cc(Cl)c(N3CCC(O)(CC(=O)N4CC5(C4)CN(c4ccc(-c6cc(F)c7c(c6)C(=O)N(C(C(=O)Nc6nccs6)c6ncn8c6CCC8)C7)cc4)C5)CC3)c(Cl)c2)C(=O)N1` (stereo not shown) [Compound 169, 2-[6-[4-[2-[2-[1-[2,6-dichloro-4-(2,4-dioxohexahydropyrimidin-1-yl)phenyl]-4-hydroxy-4-piperidyl]acetyl]-2,6-diazaspiro[3.3]heptan-6-yl]phenyl]-4-fluoro-1-oxo-isoindolin-2-yl]-2-(6,7-dihydro-5H-pyrrolo[1,2-c]imidazol-1-yl)-N-thiazol-2-yl-acetamide], the DC50 was under 50 nM. Same read-out and setting: the value for `O=C1CCC(Nc2ccc(N3CCC(O)(CC(=O)N4CC5(C4)CN(c4ccc(-c6ccc7cn(C(C(=O)Nc8nccs8)c8ncn9c8CCC9)nc7c6F)cn4)C5)CC3)c(F)c2)C(=O)N1` (stereo not shown) [Compound 74, 2-(6,7-dihydro-5H-pyrrolo[1,2-c]imidazol-1-yl)-2-[6-[6-[2-[2-[1-[4-[(2,6-dioxo-3-piperidyl)amino]-2-fluoro-phenyl]-4-hydroxy-4-piperidyl]acetyl]-2,6-diazaspiro[3.3]heptan-6-yl]-3-pyridyl]-7-fluoro-indazol-2-yl]-N-thiazol-2-yl-acetamide] was under 50 nM. The same measure, in the same setting: the value for `O=C1CCN(c2ccc(N3CCC(O)(CC(=O)N4CCC5(CC4)CN(c4ccc(-c6cc(F)c7c(c6)C(=O)N(C(C(=O)Nc6nccs6)c6ncn8c6CCC8)C7)cc4)C5)CC3)c(Cl)c2)C(=O)N1` (stereo not shown) [Compound 170, 2-[6-[4-[7-[2-[1-[2-chloro-4-(2,4-dioxohexahydropyrimidin-1-yl)phenyl]-4-hydroxy-4-piperidyl]acetyl]-2,7-diazaspiro[3.5]nonan-2-yl]phenyl]-4-fluoro-1-oxo-isoindolin-2-yl]-2-(6,7-dihydro-5H-pyrrolo[1,2-c]imidazol-1-yl)-N-thiazol-2-yl-acetamide] was under 50 nM.

As usually defined, the DC50 is the concentration giving 50% degradation.

The values are drawn from patent publication US20240158418A1 (C4 Therapeutics, Inc., priority 2021, published 2024).
